Read-outs that look alike come from different tables or passages of the source.
Key:
A2780 cells = assay: In-vitro cell proliferation assay (SRB), A2780 cells; assay type: cell-based; settings: A2780 cells, 72 hours, SRB, read-out: A2780 IC50;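 further: viable cell number read as SRB absorbance, background from media-only wells subtracted, IC50 interpolated from percent inhibition at two bracketing compound concentrations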
NAMPT = NAMPT (Homo sapiens (Human), UniProt P43490); assay: NAMPT biochemical inhibition assay (NMN quantified by mass spectrometry); settings: NAMPT biochemical inhibition; read-out: Biochem IC50
NAMPT, sequence (P43490 whole entry): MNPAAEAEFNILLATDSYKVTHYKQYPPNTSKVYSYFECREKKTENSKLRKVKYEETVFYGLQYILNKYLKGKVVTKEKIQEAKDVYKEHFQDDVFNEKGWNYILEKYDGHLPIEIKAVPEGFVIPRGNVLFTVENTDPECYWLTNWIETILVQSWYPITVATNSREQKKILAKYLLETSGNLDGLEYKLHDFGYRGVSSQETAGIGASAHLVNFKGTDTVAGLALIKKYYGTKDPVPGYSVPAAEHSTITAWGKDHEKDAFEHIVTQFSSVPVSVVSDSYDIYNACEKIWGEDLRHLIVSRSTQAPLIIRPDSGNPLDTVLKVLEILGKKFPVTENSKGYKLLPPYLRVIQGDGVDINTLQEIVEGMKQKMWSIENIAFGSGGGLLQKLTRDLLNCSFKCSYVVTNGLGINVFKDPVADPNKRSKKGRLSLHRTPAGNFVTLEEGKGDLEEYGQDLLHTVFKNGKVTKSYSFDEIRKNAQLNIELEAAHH

O=C(NCc1cccnc1)Nc1ccc(S(=O)(=O)c2ccc(OC(F)(F)F)c(F)c2)cc1 [3-(4-{[3-fluoro-4-(trifluoromethoxy)benzene]sulfonyl}phenyl)-1-(pyridin-3-ylmethyl)urea]
IC50 (A2780 cells; Homo sapiens, A2780, 72 h): 100 to 1000 nM
IC50 (NAMPT): 5.5 nM

O=C(NCc1cccnc1)Nc1ccc(S(=O)(=O)c2ccc(C(F)(F)F)c(F)c2)cc1 [3-(4-{[3-fluoro-4-(trifluoromethyl)benzene]sulfonyl}phenyl)-1-(pyridin-3-ylmethyl)urea]
IC50 (A2780 cells; Homo sapiens, A2780, 72 h): 100 to 1000 nM
IC50 (NAMPT): 4.1 nM

O=C(NCc1cccnc1)Nc1ccc(S(=O)(=O)c2cc(F)cc(OCC(F)(F)F)c2)cc1 [3-(4-{[3-fluoro-5-(2,2,2-trifluoroethoxy)benzene]sulfonyl]phenyl)-1-(pyridin-3-ylmethyl)urea]
IC50 (A2780 cells): 29.7 nM
IC50 (NAMPT): 1.1 nM

CC(C)COc1cc(F)cc(S(=O)(=O)c2ccc(NC(=O)NCc3cccnc3)cc2)c1 [3-(4-{[3-fluoro-5-(2-methylpropoxy)benzene]sulfonyl}phenyl)-1-(pyridin-3-ylmethyl)urea]
IC50 (A2780 cells; Homo sapiens, A2780, 72 h): 56.4 nM
IC50 (NAMPT): 4 nM

O=C(NCc1cccnc1)Nc1ccc(S(=O)(=O)c2cc(F)cc(C(F)(F)F)c2)cc1 [3-(4-{[3-fluoro-5-(trifluoromethyl)benzene]sulfonyl[phenyl)-1-(pyridin-3-ylmethyl)urea]
IC50 (A2780 cells): 57.6 nM
IC50 (NAMPT): 0.7 nM

Cc1cc(NS(=O)(=O)c2ccc(NC(=O)NCc3cccnc3)cc2)ccc1C(C)C [3-(4-{[3-methyl-4-(propan-2-yl)phenyl]sulfamoyl}phenyl)-1-(pyridin-3-ylmethyl)urea]
IC50 (A2780 cells; Homo sapiens, A2780, 72 h): 108 nM
IC50 (NAMPT): 2 nM

CCOCc1ccc(S(=O)(=O)c2ccc(NC(=O)NCc3cccnc3)cc2)cc1 [3-(4-{[4-(ethoxymethyl)benzene]sulfonyl[phenyl)-1-(pyridin-3-ylmethyl)urea]
IC50 (A2780 cells; Homo sapiens, A2780, 72 h): 100 to 1000 nM
IC50 (NAMPT): 1 nM

CC(C)c1ccc(S(=O)(=O)c2ccc(NC(=O)NCc3cccnc3)cc2)cc1 [3-(4-{[4-(propan-2-yl)benzene]sulfonyl[phenyl)-1-(pyridin-3-ylmethyl)urea]
IC50 (A2780 cells; Homo sapiens, A2780, 72 h): 100 to 1000 nM
IC50 (NAMPT): 3 nM

CC(C)Oc1ccc(S(=O)(=O)c2ccc(NC(=O)NCc3cccnc3)cc2)cc1 [3-(4-{[4-(propan-2-yloxy)benzene]sulfonyl[phenyl)-1-(pyridin-3-ylmethyl)urea]
IC50 (A2780 cells; Homo sapiens, A2780, 72 h): 29.1 nM
IC50 (NAMPT): 1.7 nM

O=C(NCc1cccnc1)Nc1ccc(S(=O)(=O)Nc2ccc(Cl)cc2OC(F)(F)F)cc1 [3-(4-{[4-chloro-2-(trifluoromethoxy)phenyl]sulfamoyl[phenyl)-1-(pyridin-3-ylmethyl)urea]
IC50 (A2780 cells): 113 nM
IC50 (NAMPT): 6 nM

O=C(NCc1cccnc1)Nc1ccc(S(=O)(=O)c2ccc(Cl)c(C(F)(F)F)c2)cc1 [3-(4-{[4-chloro-3-(trifluoromethyl)benzene]sulfonyl}phenyl)-1-(pyridin-3-ylmethyl)urea]
IC50 (A2780 cells; Homo sapiens, A2780, 72 h): 167 nM
IC50 (NAMPT): 5 nM

O=C(NCc1cccnc1)Nc1ccc(S(=O)(=O)c2ccc(F)c(OCC(F)(F)F)c2)cc1 [3-(4-{[4-fluoro-3-(2,2,2-trifluoroethoxy)benzene]sulfonyl[phenyl)-1-(pyridin-3-ylmethyl)urea]
IC50 (A2780 cells): 23.4 nM
IC50 (NAMPT): 2.1 nM

O=C(NCc1cccnc1)Nc1ccc(S(=O)(=O)c2ccc(F)c(C(F)(F)F)c2)cc1 [3-(4-{[4-fluoro-3-(trifluoromethyl)benzene]sulfonyl[phenyl)-1-(pyridin-3-ylmethyl)urea]
IC50 (A2780 cells): 86.2 nM
IC50 (NAMPT): 1.5 nM

Cc1ccc(NS(=O)(=O)c2ccc(NC(=O)NCc3cccnc3)cc2)cc1C(F)(F)F [3-(4-{[4-methyl-3-(trifluoromethyl)phenyl]sulfamoyl[phenyl)-1-(pyridin-3-ylmethyl)urea]
IC50 (A2780 cells): 179 nM
IC50 (NAMPT): 2 nM

O=C(NCc1cccnc1)Nc1ccc(S(=O)(=O)NCc2ccccc2Cl)cc1 [3-(4-{[(2-chlorophenyl)methyl]sulfamoyl}phenyl)-1-(pyridin-3-ylmethyl)urea]
IC50 (A2780 cells; Homo sapiens, A2780, 72 h): 201 nM
IC50 (NAMPT): 3 nM

COc1ccccc1CNS(=O)(=O)c1ccc(NC(=O)NCc2cccnc2)cc1 [3-(4-{[(2-methoxyphenyl)methyl]sulfamoyl}phenyl)-1-(pyridin-3-ylmethyl)urea]
IC50 (A2780 cells; Homo sapiens, A2780, 72 h): 97 nM
IC50 (NAMPT): 8 nM

CN(Cc1cccc(F)c1)S(=O)(=O)c1ccc(NC(=O)NCc2cccnc2)cc1 [3-(4-{[(3-fluorophenyl)methyl](methyl)sulfamoyl}phenyl)-1-(pyridin-3-ylmethyl)urea]
IC50 (A2780 cells; Homo sapiens, A2780, 72 h): 156 nM
IC50 (NAMPT): 2 nM

CN(Cc1ccc(Cl)cc1)S(=O)(=O)c1ccc(NC(=O)NCc2cccnc2)cc1 [3-(4-{[(4-chlorophenyl)methyl](methyl)sulfamoyl}phenyl)-1-(pyridin-3-ylmethyl)urea]
IC50 (A2780 cells; Homo sapiens, A2780, 72 h): 484 nM
IC50 (NAMPT): 2 nM

COc1ccc(CNS(=O)(=O)c2ccc(NC(=O)NCc3cccnc3)cc2)cc1 [3-(4-{[(4-methoxyphenyl)methyl]sulfamoyl}phenyl)-1-(pyridin-3-ylmethyl)urea]
IC50 (A2780 cells; Homo sapiens, A2780, 72 h): 507 nM
IC50 (NAMPT): 16 nM

CCc1ccc(CN(C)S(=O)(=O)c2ccc(NC(=O)NCc3cccnc3)cc2)nc1 [3-(4-{[(5-ethylpyridin-2-yl)methyl](methyl)sulfamoyl}phenyl)-1-(pyridin-3-ylmethyl)urea]
IC50 (A2780 cells; Homo sapiens, A2780, 72 h): 134 nM
IC50 (NAMPT): 5 nM

C[C@@H](c1ccccc1)N(C)S(=O)(=O)c1ccc(NC(=O)NCc2cccnc2)cc1 [3-(4-{methyl[(1S)-1-phenylethyl]sulfamoyl}phenyl)-1-(pyridin-3-ylmethyl)urea]
IC50 (A2780 cells; Homo sapiens, A2780, 72 h): 8 nM
IC50 (NAMPT): 1 nM

O=C(NCc1cccnc1)Nc1ccc(S(=O)(=O)Nc2ccccc2-n2cccc2)cc1 [3-(pyridin-3-ylmethyl)-1-(4-{[2-(1H-pyrrol-1-yl)phenyl]sulfamoyl}phenyl)urea]
IC50 (A2780 cells; Homo sapiens, A2780, 72 h): 76 nM
IC50 (NAMPT): 3 nM

O=C(NCc1cccnc1)Nc1ccc(S(=O)(=O)Nc2ccccc2N2CCCC2)cc1 [3-(pyridin-3-ylmethyl)-1-(4-{[2-(pyrrolidin-1-yl)phenyl]sulfamoyl}phenyl)urea]
IC50 (A2780 cells; Homo sapiens, A2780, 72 h): 11 nM
IC50 (NAMPT): 13 nM

O=C(NCc1cccnc1)Nc1ccc(S(=O)(=O)N2CCc3ncccc3C2)cc1 [3-(pyridin-3-ylmethyl)-1-[4-(5,6,7,8-tetrahydro-1,6-naphthyridine-6-sulfonyl)phenyl]urea]
IC50 (A2780 cells; Homo sapiens, A2780, 72 h): 111 nM
IC50 (NAMPT): 16 nM

O=C(NCc1cccnc1)Nc1ccc(S(=O)(=O)c2cccnc2)cc1 [3-(pyridin-3-ylmethyl)-1-[4-(pyridine-3-sulfonyl)phenyl]urea]
IC50 (A2780 cells; Homo sapiens, A2780, 72 h): 595 nM
IC50 (NAMPT): 5 nM

O=C(NCc1cccnc1)Nc1ccc(S(=O)(=O)c2ccncc2)cc1 [3-(pyridin-3-ylmethyl)-1-[4-(pyridine-4-sulfonyl)phenyl]urea]
IC50 (A2780 cells; Homo sapiens, A2780, 72 h): 488 nM
IC50 (NAMPT): 11 nM

O=C(NCc1cccnc1)Nc1ccc(S(=O)(=O)c2cncnc2)cc1 [3-(pyridin-3-ylmethyl)-1-[4-(pyrimidine-5-sulfonyl)phenyl]urea]
IC50 (A2780 cells; Homo sapiens, A2780, 72 h): 871 nM
IC50 (NAMPT): 20 nM

O=C(NCc1cccnc1)Nc1ccc(S(=O)(=O)c2cnc3ccccc3c2)cc1 [3-(pyridin-3-ylmethyl)-1-[4-(quinoline-3-sulfonyl)phenyl]urea]
IC50 (A2780 cells; Homo sapiens, A2780, 72 h): 28 nM
IC50 (NAMPT): 2.8 nM

O=C(NCc1cccnc1)Nc1ccc(S(=O)(=O)c2ccc3ncccc3c2)cc1 [3-(pyridin-3-ylmethyl)-1-[4-(quinoline-6-sulfonyl)phenyl]urea]
IC50 (A2780 cells; Homo sapiens, A2780, 72 h): 44.1 nM
IC50 (NAMPT): 2.7 nM

O=C(NCc1cccnc1)Nc1ccc(S(=O)(=O)c2cccc3cccnc23)cc1 [3-(pyridin-3-ylmethyl)-1-[4-(quinoline-8-sulfonyl)phenyl]urea]
IC50 (A2780 cells; Homo sapiens, A2780, 72 h): 2.2 nM
IC50 (NAMPT): 1.4 nM

O=C(NCc1cccnc1)Nc1ccc(S(=O)(=O)c2ccc(C(=O)N3CCCC3)cc2)cc1 [3-(pyridin-3-ylmethyl)-1-[4-({4-[(pyrrolidin-1-yl)carbonyl]benzene}sulfonyl)phenyl]urea]
IC50 (A2780 cells; Homo sapiens, A2780, 72 h): 7.6 nM
IC50 (NAMPT): 1.3 nM

O=C(NCc1cccnc1)Nc1ccc(S(=O)(=O)N2CCC[C@H](C(=O)N3CCCC3)C2)cc1 [3-(pyridin-3-ylmethyl)-1-{4-[(3S)-3-[(pyrrolidin-1-yl)carbonyl]piperidine-1-sulfonyl]phenyl}urea]
IC50 (A2780 cells; Homo sapiens, A2780, 72 h): 137 nM
IC50 (NAMPT): 9 nM

O=C(NCc1cccnc1)Nc1ccc(S(=O)(=O)Nc2cccc3c2CCCC3)cc1 [3-(pyridin-3-ylmethyl)-1-{4-[(5,6,7,8-tetrahydronaphthalen-1-yl)sulfamoyl]phenyl}urea]
IC50 (A2780 cells; Homo sapiens, A2780, 72 h): 45 nM
IC50 (NAMPT): 0.3 nM

O=C(NCc1cccnc1)Nc1ccc(S(=O)(=O)N2CCCCC2)cc1F [3-[2-fluoro-4-(piperidine-1-sulfonyl)phenyl]-1-(pyridin-3-ylmethyl)urea]
IC50 (A2780 cells; Homo sapiens, A2780, 72 h): 1000 nM
IC50 (NAMPT): 23 nM

Cn1ncc2c(S(=O)(=O)c3ccc(NC(=O)NCc4cccnc4)cc3)cccc21 [3-[4-(1-methyl-1H-indazole-4-sulfonyl)phenyl]-1-(pyridin-3-ylmethyl)urea]
IC50 (A2780 cells; Homo sapiens, A2780, 72 h): 59.9 nM
IC50 (NAMPT): 1 nM

Cn1ncc2cc(S(=O)(=O)c3ccc(NC(=O)NCc4cccnc4)cc3)ccc21 [3-[4-(1-methyl-1H-indazole-5-sulfonyl)phenyl]-1-(pyridin-3-ylmethyl)urea]
IC50 (A2780 cells; Homo sapiens, A2780, 72 h): 92.5 nM
IC50 (NAMPT): 1.8 nM

Cn1ncc2ccc(S(=O)(=O)c3ccc(NC(=O)NCc4cccnc4)cc3)cc21 [3-[4-(1-methyl-1H-indazole-6-sulfonyl)phenyl]-1-(pyridin-3-ylmethyl)urea]
IC50 (A2780 cells; Homo sapiens, A2780, 72 h): 35.4 nM
IC50 (NAMPT): 2.5 nM

Cn1ncc2cccc(S(=O)(=O)c3ccc(NC(=O)NCc4cccnc4)cc3)c21 [3-[4-(1-methyl-1H-indazole-7-sulfonyl)phenyl]-1-(pyridin-3-ylmethyl)urea]
IC50 (A2780 cells; Homo sapiens, A2780, 72 h): 100 to 1000 nM
IC50 (NAMPT): 14.4 nM

Cn1c(S(=O)(=O)c2ccc(NC(=O)NCc3cccnc3)cc2)cc2ccccc21 [3-[4-(1-methyl-1H-indole-2-sulfonyl)phenyl]-1-(pyridin-3-ylmethyl)urea]
IC50 (A2780 cells; Homo sapiens, A2780, 72 h): 63.5 nM
IC50 (NAMPT): 3 nM

CCCn1cc(S(=O)(=O)c2ccc(NC(=O)NCc3cccnc3)cc2)cn1 [3-[4-(1-propyl-1H-pyrazole-4-sulfonyl)phenyl]-1-(pyridin-3-ylmethyl)urea]
IC50 (A2780 cells; Homo sapiens, A2780, 72 h): 13.1 nM
IC50 (NAMPT): 6.3 nM
